Reference: paper PMC3494675, “Structure-Function Analysis of the Glioma Targeting NFL-TBS.40-63 Peptide Corresponding to the Tubulin-Binding Site on the Light Neurofilament Subunit” (PLoS ONE, 2012)
Square brackets hold non-standard residues; d marks the D form. Peptide text beside a SMILES is read from it. * marks the point of attachment. Biotin = O=C1N[C@H]2[C@H](CS[C@H]2CCCCC(=O)*)N1; pS = N[C@@H](COP(=O)(O)O)C(=O)O

Tests used:
[1] = test system: T98G human glioblastoma cells; experiment: Disintegration of the microtubule network in T98G cells (anti-tubulin immunostaining, cell counting); assay type: cell-based; conditions: 6 hours; for Disintegration of MT (% of cells): T98G cells, 10 µM biotinylated peptide, anti-tubulin immunostaining, minimum 200 cells per experiment, mean ± S.E.M., triplicated; for Effect on MT network of T98G / glioma cells (in words): 10 µM, immunocytochemistry
Method: (§1) Cells containing the biotinylated peptide were detected using Alexa-labeled avidin (green fluorescence) and those displaying a normal or a destroyed MT network were detected with an anti-tubulin antibody (red fluorescence) ( Figure 1A-B ). Then, we counted a minimum of 200 cells per slide containing or not the peptide, and with a normal or destroyed microtubule network ( Figure 1C ). As illustrated on Figure 1A glioblastoma cells contain a rich MT network. […] Cells were plated on cover slips and cultured in media containing biotinylated peptides (10 μM) for 6 hours. […] The cells were then incubated during 10 min in a 0.5% triton X-100 permeabilization solution, and washed 3 times in PBS. Next, they were incubated in a blocking solution (PBS 5% BSA) for 15 min, then incubated with mouse anti-ß-tubulin antibody (Sigma) 1/200 overnight. Tubulin and biotinylated peptides were localized using respectively Alexa 568 nm anti-mouse antibody and streptavidin Alexa 488 nm (Molecular Probes) 1/200 for 1 hour, followed by washing in PBS. […] Sigma) for 5 min, washed twice with PBS, then cover slips were mounted with an antifading solution. Observations were performed with an Olympus confocal microscope (BX50) using Fluoview.3.1. Software or a Leica DMI6000 inverted microscope and analyzed with Metamorph 7.1.7.0. software. We counted cells containing the peptide and cells displaying a destroyed MT network. Experiments were repeated at least three times, and a minimum of 200 cells was scored during each experiment.

[2] = test system: T98G human glioblastoma cells; experiment: Peptide incorporation into T98G cells (immunocytochemistry, cell counting); assay type: cell-based; conditions: 6 hours; for Peptide incorporation (% of cells): T98G cells, 10 µM biotinylated peptide, Alexa-labeled avidin/streptavidin fluorescence microscopy, minimum 200 cells per experiment, mean ± S.E.M., triplicated; for Cell penetration / internalization in T98G cells (in words): 10 µM, immunocytochemistry, compared to original NFL-TBS.40-63
Method: as §1

| Structure (SMILES) | Disintegration of MT (% of cells) [1] | Peptide incorporation (% of cells) [2] | Cell penetration / internalization in T98G cells (in words) [2] | Effect on MT network of T98G / glioma cells (in words) [1] |
| --- | --- | --- | --- | --- |
| CC(C)C[C@H](NC(=O)[C@H](CO)NC(=O)[C@H](CO)NC(=O)[C@H](CO)NC(=O)[C@@H](NC(=O)[C@@H]1CCCN1C(=O)[C@H](C)NC(=O)[C@H](C)NC(=O)[C@H](Cc1ccc(O)cc1)NC(=O)[C@H](CO)NC(=O)[C@H](CO)NC(=O)[C@H](Cc1ccc(O)cc1)NC(=O)CCCC[C@@H]1SC[C@@H]2NC(=O)N[C@@H]21)C(C)C)C(=O)N[C@@H](CO)C(=O)N[C@H](C(=O)N[C@@H](CCCNC(=N)N)C(=O)N[C@@H](CCCNC(=N)N)C(=O)N[C@@H](CO)C(=O)N[C@@H](Cc1ccc(O)cc1)C(=O)N[C@@H](CO)C(=O)N[C@@H](CO)C(=O)N[C@@H](CO)C(=O)N[C@@H](CO)C(=O)NCC(=O)N[C@@H](CO)C(N)=O)C(C)C [Ser5Ala] (Biotin-YSSYAAPVSSSLSVRRSYSSSSGS-NH2) | 23.6±1.6 % of cells | 16.0±1.4 % of cells |  |  |
| CC(C)C[C@H](NC(=O)[C@H](CO)NC(=O)[C@H](CO)NC(=O)[C@H](C)NC(=O)[C@@H](NC(=O)[C@@H]1CCCN1C(=O)[C@H](C)NC(=O)[C@H](CO)NC(=O)[C@H](Cc1ccc(O)cc1)NC(=O)[C@H](CO)NC(=O)[C@H](CO)NC(=O)[C@H](Cc1ccc(O)cc1)NC(=O)CCCC[C@@H]1SC[C@@H]2NC(=O)N[C@@H]21)C(C)C)C(=O)N[C@@H](CO)C(=O)N[C@H](C(=O)N[C@@H](CCCNC(=N)N)C(=O)N[C@@H](CCCNC(=N)N)C(=O)N[C@@H](CO)C(=O)N[C@@H](Cc1ccc(O)cc1)C(=O)N[C@@H](CO)C(=O)N[C@@H](CO)C(=O)N[C@@H](CO)C(=O)N[C@@H](CO)C(=O)NCC(=O)N[C@@H](CO)C(N)=O)C(C)C [Ser9Ala] (Biotin-YSSYSAPVASSLSVRRSYSSSSGS-NH2) | 27.1±4.8 % of cells | 23.3±8.4 % of cells | penetrated in cells significantly although to a much lesser extent than the wt peptide |  |
| CC(C)C[C@H](NC(=O)[C@H](CO)NC(=O)[C@H](C)NC(=O)[C@H](CO)NC(=O)[C@@H](NC(=O)[C@@H]1CCCN1C(=O)[C@H](C)NC(=O)[C@H](CO)NC(=O)[C@H](Cc1ccc(O)cc1)NC(=O)[C@H](CO)NC(=O)[C@H](CO)NC(=O)[C@H](Cc1ccc(O)cc1)NC(=O)CCCC[C@@H]1SC[C@@H]2NC(=O)N[C@@H]21)C(C)C)C(=O)N[C@@H](CO)C(=O)N[C@H](C(=O)N[C@@H](CCCNC(=N)N)C(=O)N[C@@H](CCCNC(=N)N)C(=O)N[C@@H](CO)C(=O)N[C@@H](Cc1ccc(O)cc1)C(=O)N[C@@H](CO)C(=O)N[C@@H](CO)C(=O)N[C@@H](CO)C(=O)N[C@@H](CO)C(=O)NCC(=O)N[C@@H](CO)C(N)=O)C(C)C [Ser10Ala] (Biotin-YSSYSAPVSASLSVRRSYSSSSGS-NH2) | 32.9±1.9 % of cells | 34.5±0 % of cells | penetrated in cells significantly although to a much lesser extent than the wt peptide |  |
| CC(C)C[C@H](NC(=O)[C@H](C)NC(=O)[C@H](CO)NC(=O)[C@H](CO)NC(=O)[C@@H](NC(=O)[C@@H]1CCCN1C(=O)[C@H](C)NC(=O)[C@H](CO)NC(=O)[C@H](Cc1ccc(O)cc1)NC(=O)[C@H](CO)NC(=O)[C@H](CO)NC(=O)[C@H](Cc1ccc(O)cc1)NC(=O)CCCC[C@@H]1SC[C@@H]2NC(=O)N[C@@H]21)C(C)C)C(=O)N[C@@H](CO)C(=O)N[C@H](C(=O)N[C@@H](CCCNC(=N)N)C(=O)N[C@@H](CCCNC(=N)N)C(=O)N[C@@H](CO)C(=O)N[C@@H](Cc1ccc(O)cc1)C(=O)N[C@@H](CO)C(=O)N[C@@H](CO)C(=O)N[C@@H](CO)C(=O)N[C@@H](CO)C(=O)NCC(=O)N[C@@H](CO)C(N)=O)C(C)C [Ser11Ala] (Biotin-YSSYSAPVSSALSVRRSYSSSSGS-NH2) | 15.9±6.5 % of cells | 2.5±2.5 % of cells |  |  |
| CC(C)C[C@H](NC(=O)[C@H](CO)NC(=O)[C@H](CO)NC(=O)[C@H](CO)NC(=O)[C@@H](NC(=O)[C@@H]1CCCN1C(=O)[C@H](C)NC(=O)[C@H](CO)NC(=O)[C@H](Cc1ccc(O)cc1)NC(=O)[C@H](CO)NC(=O)[C@H](CO)NC(=O)[C@H](Cc1ccc(O)cc1)NC(=O)CCCC[C@@H]1SC[C@@H]2NC(=O)N[C@@H]21)C(C)C)C(=O)N[C@@H](C)C(=O)N[C@H](C(=O)N[C@@H](CCCNC(=N)N)C(=O)N[C@@H](CCCNC(=N)N)C(=O)N[C@@H](CO)C(=O)N[C@@H](Cc1ccc(O)cc1)C(=O)N[C@@H](CO)C(=O)N[C@@H](CO)C(=O)N[C@@H](CO)C(=O)N[C@@H](CO)C(=O)NCC(=O)N[C@@H](CO)C(N)=O)C(C)C [Ser13Ala] (Biotin-YSSYSAPVSSSLAVRRSYSSSSGS-NH2) | 16.6±5.2 % of cells | 12.2±0.8 % of cells |  |  |
| CC(C)C[C@H](NC(=O)[C@H](CO)NC(=O)[C@H](CO)NC(=O)[C@H](CO)NC(=O)[C@@H](NC(=O)[C@@H]1CCCN1C(=O)[C@H](C)NC(=O)[C@H](CO)NC(=O)[C@H](Cc1ccc(O)cc1)NC(=O)[C@H](CO)NC(=O)[C@H](CO)NC(=O)[C@H](Cc1ccc(O)cc1)NC(=O)CCCC[C@@H]1SC[C@@H]2NC(=O)N[C@@H]21)C(C)C)C(=O)N[C@@H](CO)C(=O)N[C@H](C(=O)N[C@@H](CCCNC(=N)N)C(=O)N[C@@H](CCCNC(=N)N)C(=O)N[C@@H](CC(=O)O)C(=O)N[C@@H](Cc1ccc(O)cc1)C(=O)N[C@@H](CC(=O)O)C(=O)N[C@@H](CO)C(=O)N[C@@H](CO)C(=O)N[C@@H](CO)C(=O)NCC(=O)N[C@@H](CO)C(N)=O)C(C)C [Ser17,19Asp] (Biotin-YSSYSAPVSSSLSVRRDYDSSSGS-NH2) | 18.6±6.8 % of cells | 29.0±12.7 % of cells | decreased internalization | not altered |
| CC(C)C[C@H](NC(=O)[C@H](CO)NC(=O)[C@H](CO)NC(=O)[C@H](CO)NC(=O)[C@@H](NC(=O)[C@@H]1CCCN1C(=O)[C@H](C)NC(=O)[C@H](CO)NC(=O)[C@H](Cc1ccc(O)cc1)NC(=O)[C@H](CO)NC(=O)[C@H](CO)NC(=O)[C@H](Cc1ccc(O)cc1)NC(=O)CCCC[C@@H]1SC[C@@H]2NC(=O)N[C@@H]21)C(C)C)C(=O)N[C@@H](CO)C(=O)N[C@H](C(=O)N[C@@H](CCCNC(=N)N)C(=O)N[C@@H](CCCNC(=N)N)C(=O)N[C@@H](COP(=O)(O)O)C(=O)N[C@@H](Cc1ccc(O)cc1)C(=O)N[C@@H](COP(=O)(O)O)C(=O)N[C@@H](CO)C(=O)N[C@@H](CO)C(=O)N[C@@H](CO)C(=O)NCC(=O)N[C@@H](CO)C(N)=O)C(C)C [Ser17,19SerP] (Biotin-YSSYSAPVSSSLSVRR[pS]Y[pS]SSSGS-NH2) | 11.0±3.0 % of cells | 32±2.1 % of cells | decreased internalization | not altered |
| CC(C)C[C@H](NC(=O)[C@H](CO)NC(=O)[C@H](CO)NC(=O)[C@H](CO)NC(=O)[C@@H](NC(=O)[C@@H]1CCCN1C(=O)[C@H](C)NC(=O)[C@H](CO)NC(=O)[C@H](Cc1ccc(O)cc1)NC(=O)[C@H](CO)NC(=O)[C@H](CO)NC(=O)[C@H](Cc1ccc(O)cc1)NC(=O)CCCC[C@@H]1SC[C@@H]2NC(=O)N[C@@H]21)C(C)C)C(=O)N[C@@H](CO)C(=O)N[C@H](C(=O)N[C@@H](CCCNC(=N)N)C(=O)N[C@@H](CCCNC(=N)N)C(=O)N[C@@H](C)C(=O)N[C@@H](Cc1ccc(O)cc1)C(=O)N[C@@H](CO)C(=O)N[C@@H](CO)C(=O)N[C@@H](CO)C(=O)N[C@@H](CO)C(=O)NCC(=O)N[C@@H](CO)C(N)=O)C(C)C [Ser17Ala] (Biotin-YSSYSAPVSSSLSVRRAYSSSSGS-NH2) | 18.1±4.4 % of cells | 4.6±1.8 % of cells |  |  |
| CC(C)C[C@H](NC(=O)[C@H](CO)NC(=O)[C@H](CO)NC(=O)[C@H](CO)NC(=O)[C@@H](NC(=O)[C@@H]1CCCN1C(=O)[C@H](C)NC(=O)[C@H](CO)NC(=O)[C@H](Cc1ccc(O)cc1)NC(=O)[C@H](CO)NC(=O)[C@H](CO)NC(=O)[C@H](Cc1ccc(O)cc1)NC(=O)CCCC[C@@H]1SC[C@@H]2NC(=O)N[C@@H]21)C(C)C)C(=O)N[C@@H](CO)C(=O)N[C@H](C(=O)N[C@@H](CCCNC(=N)N)C(=O)N[C@@H](CCCNC(=N)N)C(=O)N[C@@H](CC(=O)O)C(=O)N[C@@H](Cc1ccc(O)cc1)C(=O)N[C@@H](CO)C(=O)N[C@@H](CO)C(=O)N[C@@H](CO)C(=O)N[C@@H](CO)C(=O)NCC(=O)N[C@@H](CO)C(N)=O)C(C)C [Ser17Asp] (Biotin-YSSYSAPVSSSLSVRRDYSSSSGS-NH2) | 22.2±3.4 % of cells | 31.3±11.2 % of cells | decreased internalization | not altered |
